The subject of one test is USP8 MIT domain. Briefly: Peptide-phage display-based deep mutational scanning (DMS), USP8 MIT domain. Format: binding, human. Particulars: bait USP8_MIT__P40818_1_142; EFCAB12 (Q6NXP0) 2-17; pair of mutant with wild-type wt_00016 (MDDDYEAYHSLFLSLL); sheet S3.B_ProP-PD_pairs. Here is the method: The residues of these 16 amino acid-long wild-type peptides were substituted to all natural amino acid residues, except cysteine, in all positions (Supplementary Table S2A). The designed peptide sequences were reverse-translated to oligonucleotides optimized to the codon usage of E. coli. The required flanking regions (5´[…] and 3´[…]) were added for library construction. The library was generated as previously described.
Four rounds of phage selections were carried out using the second generation human disorderome library or the constructed deep mutational scanning library. At least three individual replicates were used for each bait protein. 10 µg of GST-tagged proteins or GST control (diluted in PBS from the stock of proteins kept in the purification elution buffer) were immobilized in 100 µL PBS on a 96-well MaxiSorp (Nunc) plate overnight at 4 °C. The plates were incubated with blocking buffer (with 0.5% BSA in PBS) for 1 h at 4 °C followed by washing with 0.05% Tween 20 in PBS four times. The naïve phage library (10^11 CFU) was diluted in 1/5th volume PEG/NaCl (20% PEG-8000, 0.4 M NaCl) and 1X PBS, incubated on ice for 10 min and centrifuged at 10,000 [drawing 3] g for 10 min. The pellet was resuspended in the volume of PBS (100 µL/ well). The GST-coated control plate was incubated with 100 µL library per well in PBS for 1 h at 4 °C to remove non-specific binders. The supernatant was transferred to the target wells and incubated for 2 h at 4 °C. The wells were washed five times with 0.05% Tween 20 in PBS and the bound phages were eluted with 100 µL per well log-phase E. coli OmniMAX by incubating at 37° C while shaking. After 30 min, M13KO7 helper phages were added and incubated for an additional 45 min. The bacterial cultures were transferred to 1 mL 2YT supplemented with 100 µg/mL carbenicillin, 30 µg/mL kanamycin and 0.3 mM IPTG and grew overnight at 37 °C while shaking. The following day the cultures were centrifuged for 10 min at 2,000 [drawing 4] g, 4 °C. 1/10th volume of 10 [drawing 5] PBS was added to adjust the pH and heated at 65 °C for 10 min. The phage pools from each round were used as in-phages for the next round of selections.
The samples were prepared for NGS as previously described. Peptide-coding regions of the enriched phage pools were amplified and barcoded using Phusion High-Fidelity PCR Master Mix (Thermo Fisher) for 22 cycles and confirmed by 2% agarose gel electrophoresis. The PCR products were normalized with 25 µL Mag-bind Total Pure NGS beads (Omega Biotek) and 10 µL of each eluted sample (Qiagen Elution Buffer) was pooled and cleaned-up with a PCR purification kit (Qiagen). The PCR product was confirmed by 2% agarose electrophoresis and the band was extracted with QIAquick Gel extraction Kit (Qiagen) and eluted with 30 µL TE buffer. The dsDNA was quantified using QuantiT PicoGreen dsDNA Assay Kit (Thermo Fisher) and sent for NGS (Illumina MiSeq v3, 1 × 150 bp read setup, 20% PhiX, NGI SciLifeLab facility, Sweden). The NGS data were demultiplexed, adapter regions were trimmed and sequences with an average quality of at least 20 were translated to peptide sequences. The NGS data were analysed using custom Python scripts. The total read NGS counts for each selection experiment of each peptide sequence were compiled and annotated in PepTools (https://slim.icr.ac.uk/tools/peptools/). Since ProP-PD is in essence a competition assay, the possibility of the input phage library influencing the selection outcome was explored. For this, the Pearson correlation coefficient, p-value and coefficient of determination were calculated for all peptide NGS count fractions in the library coverage vs. in the selections results (Supplementary Fig. S7; Supplementary Table S2B; Supplementary Table S3B; Supplementary Table S7B). Pearson correlation coefficient and p-value were calculated using Python’s SciPy library. […]
In turn, MDSDYEAYHSLFLSLL [mut_04370] had a hit_pair_ratio of 42.24.
MDTDYEAYHSLFLSLL [mut_04371] registered a hit_pair_ratio of 112.94.
As for MDVDYEAYHSLFLSLL [mut_04372], the hit_pair_ratio worked out at 7.68.
Still for that read-out and setting: the value for MDWDYEAYHSLFLSLL [mut_04373] was 2.57; that for MDYDYEAYHSLFLSLL [mut_04374] was 42.41.
For MEDDYEAYHSLFLSLL [mut_04340], the hit_pair_ratio amounted to 16.11.
MFDDYEAYHSLFLSLL [mut_04341] had a hit_pair_ratio of 4.97.
Same read-out and setting: the figure for MGDDYEAYHSLFLSLL [mut_04342] is 337.92; for MHDDYEAYHSLFLSLL [mut_04343] it is 337.92.
On to MIDDYEAYHSLFLSLL [mut_04344], for which the hit_pair_ratio is 337.92.
Still for that read-out and setting: the value for MKDDYEAYHSLFLSLL [mut_04345] was 25.99.
Still for that read-out and setting: the figure for MLDDYEAYHSLFLSLL [mut_04346] is 33.93.
On the same count and under the same terms, the value for MMDDYEAYHSLFLSLL [mut_04347] was 37.58; that for MNDDYEAYHSLFLSLL [mut_04348] was 14.75; that for MPDDYEAYHSLFLSLL [mut_04349] was 168.96.
MQDDYEAYHSLFLSLL [mut_04350] yielded a hit_pair_ratio of 169.63.
The sequence MRDDYEAYHSLFLSLL [mut_04351] came in with a hit_pair_ratio of 4.58.
MSDDYEAYHSLFLSLL [mut_04352] yielded a hit_pair_ratio of 67.69.
In turn, MVDDYEAYHSLFLSLL [mut_04354] showed a hit_pair_ratio of 6.06.
As to MYDDYEAYHSLFLSLL [mut_04356], the hit_pair_ratio is 67.58.
The same measure, in the same setting: the value for NDDDYEAYHSLFLSLL [mut_04330] was 17.85; that for PDDDYEAYHSLFLSLL [mut_04331] was 10.25; that for QDDDYEAYHSLFLSLL [mut_04332] was 3.38.
Still for that read-out and setting: the figure for SDDDYEAYHSLFLSLL [mut_04334] is 56.39.

Staying with this test, now noted: bait USP8_MIT__P40818_1_142; MLPH 482-497; ratio of averaged fractions of wild-type/mutant peptide pair, larger over smaller (direction to be read from the two fractions).
For SEVADIESRIAALRAA, the hit_pair_ratio amounted to 7.79.
On the same count and under the same terms, the figure for SEVEDIESRIAALRAA is 7.79; for SEVFDIESRIAALRAA it is 1.56; for SEVGDIESRIAALRAA it is 2.28.
Same read-out and setting: the figure for SEVHDIESRIAALRAA is 28.09; for SEVIDIESRIAALRAA it is 6.39.
Still for that read-out and setting: the figure for SEVKDIESRIAALRAA is 8.70; for SEVLDIESRIAALRAA it is 9.47.
In the case of SEVMDIESRIAALRAA, the hit_pair_ratio was determined as 4.36.
Still for that read-out and setting: the figure for SEVNDIESRIAALRAA is 7.79; for SEVQDIESRIAALRAA it is 3.89; for SEVRDIESRIAALRAA it is 4.05.
Same read-out and setting: the figure for SEVSDDESRIAALRAA is 7.79; for SEVSDFESRIAALRAA it is 49.08; for SEVSDHESRIAALRAA it is 1.54.
Same read-out and setting: the value for SEVSDIEDRIAALRAA was 4.82.
On to SEVSDIEERIAALRAA, for which the hit_pair_ratio is recorded as 7.79.
Same read-out and setting: the value for SEVSDIEGRIAALRAA was 2.60; that for SEVSDIEHRIAALRAA was 4.62.
With SEVSDIELRIAALRAA, the hit_pair_ratio is given as 4.11.
On the same count and under the same terms, the value for SEVSDIEMRIAALRAA was 7.10; that for SEVSDIENRIAALRAA was 1.11.
The same measure, in the same setting: the value for SEVSDIEPRIAALRAA was 7.79; that for SEVSDIEQRIAALRAA was 1.11; that for SEVSDIERRIAALRAA was 1.35.
Still for that read-out and setting: the value for SEVSDIESREAALRAA was 3.89; that for SEVSDIESRFAALRAA was 9.56.
Regarding SEVSDIESRIAAARAA, the hit_pair_ratio was found to be 3.89.
On to SEVSDIESRIAALHAA, for which the hit_pair_ratio was found to be 1.15.
The same measure, in the same setting: the figure for SEVSDIESRIAALIAA is 3.61; for SEVSDIESRIAALLAA it is 9.42; for SEVSDIESRIAALRAF it is 7.79.
As to SEVSDIESRIAALRAI, the hit_pair_ratio is 17.25.
SEVSDIESRIAALRAL: the hit_pair_ratio is reported as 1.15.
For SEVSDIESRIAALRAM, the hit_pair_ratio was 108.17.
Same read-out and setting: the value for SEVSDIESRIAALRAV was 1.51.
Same read-out and setting: the value for SEVSDIESRIAALRAY was 1.28; that for SEVSDIESRIAALREA was 7.79; that for SEVSDIESRIAALRMA was 17.19.
For SEVSDIESRIAALRNA, the hit_pair_ratio is on record as 7.79.
On the same count and under the same terms, the figure for SEVSDIESRIAALRWA is 7.79; for SEVSDIESRIAALRYA it is 7.79.
Same read-out and setting: the figure for SEVSDIESRIAALTAA is 7.79.
On the same count and under the same terms, the figure for SEVSDIESRIAALVAA is 18.10.
As to SEVSDIESRIAASRAA, the hit_pair_ratio is 1.95.
On the same count and under the same terms, the value for SEVSDIESRIAATRAA was 7.79; that for SEVSDIESRIAAWRAA was 2.60; that for SEVSDIESRIAELRAA was 1.95.
The same measure, in the same setting: the value for SEVSDIESRIALLRAA was 1.95; that for SEVSDIESRIAMLRAA was 1.77; that for SEVSDIESRIAVLRAA was 2.60.
For SEVSDIESRIDALRAA, the hit_pair_ratio is reported as 7.79.
Same read-out and setting: the value for SEVSDIESRIEALRAA was 2.26; that for SEVSDIESRIKALRAA was 3.89; that for SEVSDIESRIMALRAA was 6.39.
In the case of SEVSDIESRINALRAA, the hit_pair_ratio was 7.79.
In the case of SEVSDIESRISALRAA, the hit_pair_ratio turned out to be 1.49.
For SEVSDIESRKAALRAA, the hit_pair_ratio was 7.79.
On to SEVSDIESRQAALRAA, for which the hit_pair_ratio stood at 2.60.
On to SEVSDIKSRIAALRAA, for which the hit_pair_ratio is on record as 3.89.

The test is the same for the next values; noted with them: sheet S3.B_ProP-PD_pairs; bait USP8_MIT__P40818_1_142; ratio within the wild-type/mutant pair, larger over smaller averaged fraction (direction from fraction_wt and fraction_mut).
Turning to MEVSDIESRIAALRAA, the hit_pair_ratio was 2.60.
Still for that read-out and setting: the figure for NEVSDIESRIAALRAA is 11.09.
The same measure, in the same setting: the value for PEVSDIESRIAALRAA was 7.79.
Same read-out and setting: the figure for QEVSDIESRIAALRAA is 2.44.
Regarding SDVSDIESRIAALRAA, the hit_pair_ratio is 11.31.
As for SEASDIESRIAALRAA, the hit_pair_ratio was 1.11.
Same read-out and setting: the figure for SEESDIESRIAALRAA is 7.79.
Same read-out and setting: the figure for SEFSDIESRIAALRAA is 1.28; for SEGSDIESRIAALRAA it is 7.79.
On to SEISDIESRIAALRAA, for which the hit_pair_ratio came to 2.51.
The same measure, in the same setting: the value for SELSDIESRIAALRAA was 11.85; that for SEPSDIESRIAALRAA was 2.03.
On the same count and under the same terms, the value for SEQSDIESRIAALRAA was 5.24.
On the same count and under the same terms, the figure for SESSDIESRIAALRAA is 3.89; for SETSDIESRIAALRAA it is 1.00.

Source of the values: PMC12057046, “Elucidation of short linear motif-based interactions of the MIT and rhodanese domains of the ubiquitin-specific protease 8” (Biology Direct, 2025).
